Experimental data published in ChEMBL document CHEMBL1201862, “PubChem BioAssay data set” (2004).
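Tested at 5 concentrations; 48 h exposure; 96-well plates; endpoints linearly interpolated, else capped at highest concentration. The concentration for 50% growth inhibition is given as GI50.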 Calls of active or inactive are those of the source. Rule as the data show it: active = GI50 up to about 1.1 µM and inactive = higher.

What was measured:
Test in all cases: DTP human tumour cell line panel, 48 h
CCRF-CEM = tested on: CCRF-CEM
COLO 205 = tested on: COLO 205
DU-145 = tested on: DU-145
HCC 2998 = tested on: HCC 2998
HCT-116 = tested on: HCT-116
HL-60 = tested on: HL-60
IGROV-1 = tested on: IGROV-1
MDA-MB-231 = tested on: MDA-MB-231
NCI-H23 = tested on: NCI-H23
OVCAR-4 = tested on: OVCAR-4
OVCAR-8 = tested on: OVCAR-8
RPMI-8226 = tested on: RPMI-8226
T47D = tested on: T47D
A549 = tested on: A549
ACHN = tested on: ACHN
OVCAR-5 = tested on: OVCAR-5
SK-OV-3 = tested on: SK-OV-3
TK-10 = tested on: TK-10
UACC-257 = tested on: UACC-257
SF-539 = tested on: SF-539

Measured: GI50

COC(=O)[C@H](Cc1c[nH]c2ccccc12)NP(=O)(O)OCC1C=CC(n2cc(C)c(=O)[nH]c2=O)O1 (stereo partly specified)
inactive: CCRF-CEM > 100 µM | COLO 205 > 100 µM | DU-145 > 100 µM | HCC 2998 > 100 µM | HCT-116 > 100 µM | HL-60 > 100 µM | IGROV-1 > 100 µM | MDA-MB-231 > 100 µM | NCI-H23 > 100 µM | OVCAR-4 > 100 µM | OVCAR-8 > 100 µM | RPMI-8226 > 100 µM | T47D > 100 µM

C=CC1(CC/C(=C\[N+](=O)[O-])c2ccc(OC)c(OC)c2)OCC(C)(C)CO1
inactive: A549 23.3 µM | ACHN 17.8 µM | CCRF-CEM 7.57 µM | COLO 205 18 µM | DU-145 16.7 µM | HCC 2998 24.5 µM | HCT-116 18.9 µM | HL-60 5.27 µM | MDA-MB-231 25.9 µM | NCI-H23 14.1 µM | OVCAR-4 11.6 µM | OVCAR-5 16.1 µM | OVCAR-8 15.2 µM | SK-OV-3 22.4 µM | T47D 14.5 µM | TK-10 17.5 µM | UACC-257 10.2 µM

CC1OC(O[C@H]2CC[C@]3(C)[C@H]4CC=C5[C@@H]6[C@@H](C)[C@H](C)CC[C@]6(C(=O)OC6OC(CO)C(O)C(O)C6O)CC[C@@]5(C(=O)O)[C@]4(C)CC[C@H]3C2(C)C)C(O)C(O)C1O (stereo partly specified)
inactive: ACHN > 100 µM | CCRF-CEM > 100 µM | COLO 205 > 100 µM | DU-145 > 100 µM | HCC 2998 > 100 µM | HCT-116 > 100 µM | HL-60 > 100 µM | MDA-MB-231 > 100 µM | NCI-H23 > 100 µM | OVCAR-4 > 100 µM | OVCAR-5 > 100 µM | OVCAR-8 > 100 µM | SF-539 > 100 µM | SK-OV-3 > 100 µM | T47D > 100 µM | TK-10 > 100 µM | UACC-257 > 100 µM

Nc1nc(N)c2ncn(-c3ccc(Cl)cc3)c2n1
inactive: A549 37 µM | ACHN 27.7 µM | CCRF-CEM 20.9 µM | COLO 205 75.5 µM | DU-145 25 µM | HCC 2998 30.2 µM | HCT-116 37.9 µM | HL-60 82 µM | IGROV-1 6.97 µM | MDA-MB-231 63.2 µM | NCI-H23 61 µM | OVCAR-4 80.5 µM | OVCAR-5 16.7 µM | OVCAR-8 30.1 µM | SF-539 27.4 µM | SK-OV-3 20.5 µM | T47D 25.5 µM | TK-10 20 µM | UACC-257 > 100 µM
